In patent US8895502B2, “β2-glycoprotein I peptide inhibitors” (Kansas State University Research Foundation, priority 2010, dated 2014):
“Also recorded” adds a separate entry of the source. Ends that are not written are not given here.

Experiments:
Format in all cases: in vivo, mouse
[1] = test system: C57Bl/6 mice; assay: Intestinal ischemia/reperfusion, mucosal injury score; design: key to Injury: + indicates significant difference from Sham treated mice; − indicates not significantly different from C57B1/6 sham treated mice; +/− indicates no significant difference from either C57B1/6 mice subjected to either Sham or IR; conditions: for IR-induced intestinal mucosal damage (injury score): C57Bl/6 mice, peptide 40 μM i.v. 5 min prior to ischemia, 2 hours reperfusion; for IR-induced intestinal injury: Example 2, peptides administered after reperfusion (15-, 30-, or 60-minutes post-reperfusion)
Procedure: (§1) C57Bl/6 and Rag-1^−/− mice were subjected to ischemia followed by reperfusion similar to previously described studies (Moses, T. et al., J. Leukoc. Biol. 86:971-980 (2009)). Briefly, ketamine (16 mg/kg) and xylazine (80 mg/kg) were used to anesthetize the mice. Buprenorphine (0.06 mg/kg) was then administered for pain. A midline laparotomy was performed to expose the abdominal cavity of the mice, which were then allowed to equilibrate for 30 min. Body temperature was maintained at 37° C. using a water-circulating heat pad. Placing a warm, saline moistened piece of gauze over the abdominal cavity prevented peritoneal desiccation. […] Ischemia was noted by the intestine changing from a pink color to a gray color. After 30 min of ischemia, the clamp was removed and the intestines were allowed to reperfuse for 5, 10, 15, or 120 min. […] Mice treated with the various β2-GPI peptides underwent the same procedure with i.v. administration of the peptides (40 μM) 5 min prior to artery occlusion. Peptides 296, 305, and 296Cys to Ser were dissolved in N. Saline (0.9% NaCl) and injected i.v. in 100-μL volumes. Peptides 100 and 181 were dissolved in DMSO prior to diluting 1/100 in N. Saline. Additional mice received peptides prior to Sham treatment.
Immediately after euthanasia, a 2-cm mid jejunum tissue section was immediately fixed in 10% buffered formalin, embedded in paraffin, and 8 μm sections were cut transversely and hematoxylin and eosin (H&E) stained. Mucosal injury was graded on a six-tiered scale, as described previously (Fleming, S. D. et al., J. Immunol. 169:2126-2133 (2002)). Briefly, the average damage score of the intestinal section (75-150 villi) was determined after grading each villus. […] Photomicrographs were obtained from H&E stained slides using a 20×, 0.5 Plan Fluor objective on a Nikon 80i microscope and images acquired at room temperature using a Nikon DS-5M camera with DS-L2 software.
Ischemia/reperfusion was performed on ketamine/xylazine anesthetized mice as described in Example 1 above. After 2 hours of reperfusion, the mice were euthanized and sera, liver, spleen, and 2 cm sections of the small intestine, approximately 10 cm distal to the gastroduodenal junction, were collected for histological and other analyses. Mice treated with the various β2-GPI peptides underwent the same procedure with i.v. administration of the peptides. Most studies assumed 2 mL total blood volume in a mouse and administered peptides to a final concentration of 40 μM at 5 min prior to ischemia. Dose response studies administered 1-40 μM peptide at 5 min prior to ischemia and time course studies administered 40 μM peptide at 5 min prior to ischemia, and at 15-, 30- or 60-min post-ischemia (i.e., during reperfusion).
After euthanasia, tissue sections were fixed and stained following the procedures outlined in Example 1. Mucosal injury (SMI) was also graded on a six-tiered scale, as described in Example 1.

[2] = test system: IL-12; assay: Intestinal IR, ex vivo IL-12 generation; design: key to IL-12p40 Induction: + indicates significant difference from Sham treated mice; − indicates not significantly different from C57B1/6 sham treated mice; +/− indicates no significant difference from either C57B1/6 mice subjected to either Sham or IR; conditions: for IL-12p40 Induction: C57Bl/6 mice subjected to IR, peptide 40 μM i.v. 5 min prior to artery occlusion; for IR induced IL-12 production: C57Bl/6 mice, peptide prior to IR
Procedure: as §1
(§2) Ex vivo generation of eicosanoids by mid-jejunal tissue was determined. Immediately after collection, a 2-cm intestinal section from each mouse was minced, washed, resuspended in 37° C. oxygenated Tyrode's buffer (Sigma-Aldrich; St. Louis, Mo.), incubated at 37° C. for 20 minutes, and the supernatant collected. PGE2 and LTB4 concentrations were determined using enzyme immunoassay kits (Cayman Chemical; Ann Arbor, Mich.). IL-6 and IL-12 concentrations were determined using a Milliplex MAP immunoassay kit (Millipore) and read on a Milliplex Analyzer (Millipore). All eicosanoid and cytokine concentrations were standardized to the total tissue protein content.
(§3) Total peroxidase, LTB4, PGE2, IL-6, IL-12p40, and IL-12p70 concentrations were determined using the procedures described in Example 1.

[3] = test system: IL-6; assay: Intestinal IR, ex vivo IL-6 generation; design: key to IL-6 Induction: + indicates significant difference from Sham treated mice; − indicates not significantly different from C57B1/6 sham treated mice; +/− indicates no significant difference from either C57B1/6 mice subjected to either Sham or IR; conditions: for IL-6 Induction: C57Bl/6 mice subjected to IR, peptide 40 μM i.v. 5 min prior to artery occlusion; for IR induced IL-6 production: C57Bl/6 mice, peptide prior to IR
Procedure: as §1, §2, §3

[4] = C57Bl/6 mice subjected to IR, peptide 40 μM i.v. 5 min prior to artery occlusion
[5] = 10 μM peptide 5 min prior to IR
[6] = administered at 60 min post-reperfusion
[7] = administered at either 5- or 15-min post-reperfusion, 2-hour assay
[8] = treatment at both 30 min and 60 min post-reperfusion

Substance | Injury [1, 4] | IR-induced intestinal mucosal damage (injury score) [1] | IL-12p40 Induction [2] | IR induced IL-12 production [2] | IL-6 Induction [3] | IR induced IL-6 production [3] | intestinal damage ([1]; 4 μM peptide 5 min prior to IR) | Injury [1, 5] | IR-induced intestinal mucosal damage (injury score) ([1]; listed as 296c-s) | IR-induced intestinal injury [1] | intestinal injury [1, 6] | intestinal injury [1, 7] | intestinal injury [1, 8]
H-IHFYCKNKEKKCSYTVEAHCRDGTI-OH (cysteine pairing not given here) [peptide 296] | − | attenuated mucosal damage | − | attenuated; also recorded: inhibit | − | attenuated; also recorded: inhibit |  |  |  |  |  |  | 
H-IHFYSKNKEKKSSYTVEAHSRDGTI-OH [peptide 296Cys-Ser] | − | attenuated mucosal damage; also recorded: confirmed to attenuate injury | − | attenuated; also recorded: inhibit | − | attenuated; also recorded: inhibit | attenuated | optimally attenuated | attenuate actual epithelial injury more effectively | effective for attenuating | attenuated | effective in preventing intestinal injury | significantly decreased
H-IPSCFKEHSSLAFWKTDASELTPC-NH2 (cysteine pairing not given here) [peptide 322, 18] | + | IR-induced intestinal damage similar to untreated mice | + | did not inhibit | + | did not inhibit |  |  |  |  |  |  | 
H-KKCSYTVEAHCRDGTIEIPSCFKEHS-OH (cysteine pairing not given here) [peptide 305, 10] | − | attenuated mucosal damage | − | attenuated; also recorded: inhibited | − | attenuated; also recorded: inhibited |  | optimally attenuated |  | effective for attenuating | attenuated | effective in preventing intestinal injury | significantly decreased
H-KNISFACNPGFFLNG-NH2 [peptide 100, 16, reference compound] | + | IR-induced intestinal damage similar to untreated mice | +/− |  | +/− | attenuated IL-6 production |  |  |  |  |  |  | 
